Where two headings read alike, the source gives them in different places.

The test system of one assay is GP2D cells. Put plainly: Cell proliferation assay (CellTiter-Glo), K-Ras G12D cells. The conditions noted are these: read-out: Inhibition of GP2D Cells (IC50). It is filed as cell-based. How it is done:
ASPC-1 (ATCC CRL-1682), Panc-10.05 (ATCC CRL-2547), A427, and GP2D (Sigma 95090714) cell lines comprise a G12D mutation and can be used to assess Ras cellular signaling in vitro, e.g., in response to the compounds herein. […] ASPC-1 culture medium is prepared with RPMI-1640 and 10% heat-inactivated FBS. Panc-10.05 culture medium is prepared with RPMI-1640, 10 Units/ml human recombinant insulin, and 10% FBS. A427 cell culture is prepared with RPMI-1640 and 10% heat-inactivated FBS. GP2D culture medium is prepared with DMEM with 2mM glutamine and 10% heat-inactivated FBS. A Cell Titer-Glo (CTG) luminescent based assay (Promega) is used to assess growth of the cells, as a measurement of the ability of the compounds herein to inhibit Ras signaling in the cells. The cells (e.g., 800 per well) are seeded in their respective culture medium in standard tissue culture-treated 384-well format plates (Falcon #08-772-116) or ultra-low attachment surface 384-well format plates (S-Bio # MS-9384UZ ). The day after plating, cells are treated with a dilution series (e.g., a 9 point 3-fold dilution series) of the compounds herein (e.g., approximately 40 µl final volume per well). Cell viability can be monitored (e.g., approximately 5 days later) according to the manufacturer's recommended instructions, where the CellTiter-Glo reagent is added (e.g., approximately 10 µl), vigorously mixed, covered, and placed on a plate shaker (e.g., approximately for 20 min) to ensure sufficient cell lysis prior to assessment of luminescent signal. The IC50 values are determined using the four parameter fit. The resulting IC50 value is a measurement of the ability of the compounds herein to reduce cell growth of Ras-driven cells (e.g., tumor cell lines) in vitro and/or in vivo.

For the next assay, the target named is T1, K-Ras G12S (Homo sapiens, UniProt P01116, G12S).
T1 construct: made in house; host or cells: E. coli (e.g., BL21 (DE3))
Put plainly: HTRF assay of the K-Ras / SOS1 interaction. It is filed as biochemical. The conditions noted are these: IC50 (against K-Ras G12D) to IC50 (against K-Ras G12S). The procedure, abridged:
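Compounds (duplicates, 10 µM to 0.01 µM) were incubated ≥~10 min with Eu-labelled GST-K-Ras G12S and XL665-labelled His-hSOS1 in HEPES pH 7.4 buffer containing NaCl, DTT, BSA and Igepal. Disruption measured as HTRF emission ratio 665/620 nm, fitted to IC50.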

T1 sequence (P01116 1-188 isoform P01116-2 G12S): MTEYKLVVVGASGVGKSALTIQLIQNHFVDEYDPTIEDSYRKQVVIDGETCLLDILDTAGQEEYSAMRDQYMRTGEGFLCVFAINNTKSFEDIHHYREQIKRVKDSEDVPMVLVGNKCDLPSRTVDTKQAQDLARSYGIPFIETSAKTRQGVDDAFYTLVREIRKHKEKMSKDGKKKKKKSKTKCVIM

As to `N#Cc1c(N)sc2c(F)ccc(-c3ncc4c(N5CC6CCC(C5)N6C(=O)n5cncn5)nc(OC[C@@]56CCCN5C[C@H](F)C6)nc4c3F)c12` [Compound A206, 4-(4-(8-(1H-1,2,4-triazole-1-carbonyl)-3,8-diazabicyclo[3.2.1]octan-3-yl)-8-fluoro-2-(((2R,7aS)-2-fluorotetrahydro-1H-pyrrolizin-7a(5H)-yl)methoxy)pyrido[4,3-d]pyrimidin-7-yl)-2-amino-7-fluorobenzo[b]thiophene-3-carbonitrile], the IC50 in the assay with GP2D cells (GP2D cells (K-Ras G12D)) was no more than 1 µM. On K-Ras G12S, the “Ratio of IC50 KRAS G12D vs. IC50 KRAS G12S” value (“Ratio” below) is “A (A: indicates that the ratio of IC50 against KrasG12D vs. IC50 against KrasG12S is 1-fold or greater)”.
As for `Nc1nc2c(-c3c(Cl)cc4c(NC5CC6(C5)CN(C(=O)n5cncn5)C6)nc(OC[C@@]56CCCN5C[C@H](F)C6)nc4c3F)ccc(F)c2s1` [Compound A211, (6-((7-(2-amino-7-fluorobenzo[d]thiazol-4-yl)-6-chloro-8-fluoro-2-(((2R,7aS)-2-fluorotetrahydro-1H-pyrrolizin-7a(5H)-yl)methoxy)quinazolin-4-yl)amino)-2-azaspiro[3.3]heptan-2-yl)(1H-1,2,4-triazol-1-yl)methanone], in the assay with GP2D cells (GP2D cells (K-Ras G12D)), the IC50 is 1 to 10 µM. Also, the “Ratio” value on K-Ras G12S is “A (A: indicates that the ratio of IC50 against KrasG12D vs. IC50 against KrasG12S is 1-fold or greater)”.
As to `Nc1nc2c(-c3c(Cl)cc4c(NC5CCN(C(=O)n6ccc(F)n6)CC5)nc(OC[C@@]56CCCN5C[C@H](F)C6)nc4c3F)ccc(F)c2s1` [Compound A222, (4-((7-(2-amino-7-fluorobenzo[d]thiazol-4-yl)-6-chloro-8-fluoro-2-(((2R,7aS)-2-fluorotetrahydro-1H-pyrrolizin-7a(5H)-yl)methoxy)quinazolin-4-yl)amino)piperidin-1-yl)(3-fluoro-1H-pyrazol-1-yl)methanone], the IC50 in the assay with GP2D cells (GP2D cells (K-Ras G12D)) fell in the range of 1 to 10 µM. In addition, at K-Ras G12S, the “Ratio” value is “A (A: indicates that the ratio of IC50 against KrasG12D vs. IC50 against KrasG12S is 1-fold or greater)”.
On the same counts, the results for `C#Cc1c(F)ccc2cc(O)cc(-c3ncc4c(N5C6COCC5CN(C(=O)n5cc(C#N)cn5)C6)nc(OC[C@@]56CCCN5C[C@H](F)C6)nc4c3F)c12` [Compound A226, 1-(9-(7-(8-ethynyl-7-fluoro-3-hydroxynaphthalen-1-yl)-8-fluoro-2-(((2R,7aS)-2-fluorotetrahydro-1H-pyrrolizin-7a(5H)-yl)methoxy)pyrido[4,3-d]pyrimidin-4-yl)-3-oxa-7,9-diazabicyclo[3.3.1]nonane-7-carbonyl)-1H-pyrazole-4-carbonitrile] are 1 to 10 µM and “A (A: indicates that the ratio of IC50 against KrasG12D vs. IC50 against KrasG12S is 1-fold or greater)”.
Turning to `N#Cc1c(N)sc2c(F)ccc(-c3c(Cl)cc4c(C5C[C@H]6CC[C@@H](C5)N6C(=O)n5cncn5)nc(OC[C@@]56CCCN5C[C@H](F)C6)nc4c3F)c12` (stereo partly drawn) [Compound A235, 4-(4-((1R,5S)-8-(1H-1,2,4-triazole-1-carbonyl)-8-azabicyclo[3.2.1]octan-3-yl)-6-chloro-8-fluoro-2-(((2R,7aS)-2-fluorotetrahydro-1H-pyrrolizin-7a(5H)-yl)methoxy)quinazolin-7-yl)-2-amino-7-fluorobenzo[b]thiophene-3-carbonitrile], the IC50 in the assay on GP2D cells (GP2D cells (K-Ras G12D)) lay in the range of 1 to 10 µM. On K-Ras G12S, the “Ratio” value is “A (A: indicates that the ratio of IC50 against KrasG12D vs. IC50 against KrasG12S is 1-fold or greater)”.
For `N#Cc1nccn1C(=O)N1CC2CCC(C1)N2c1nc(OC[C@@]23CCCN2C[C@H](F)C3)nc2c(F)c(-c3ccc(F)c4sc(N)nc34)c(Cl)cc12` [Compound A238, 1-(8-(7-(2-amino-7-fluorobenzo[d]thiazol-4-yl)-6-chloro-8-fluoro-2-(((2R,7aS)-2-fluorotetrahydro-1H-pyrrolizin-7a(5H)-yl)methoxy)quinazolm-4-yl)-3,8-diazabicyclo[3.2. 1]octane-3-carbonyl)-1H-imidazole-2-carbonitrile], the IC50 in the assay with GP2D cells (GP2D cells (K-Ras G12D)) is no more than 1 µM. For the same compound, on K-Ras G12S, the “Ratio” value was “A (A: indicates that the ratio of IC50 against KrasG12D vs. IC50 against KrasG12S is 1-fold or greater)”.
Turning to `Nc1nc2c(-c3c(Cl)cc4c(N5C6CCC5CN(C(=O)n5cncn5)C6)nc(OC[C@@]56CCCN5C[C@H](F)C6)nc4c3F)ccc(F)c2s1` [Compound A239, (8-(7-(2-amino-7-fluorobenzo[d]thiazol-4-yl)-6-chloro-8-fluoro-2-(((2R,7aS)-2-fluorotetrahydro-1H-pyrrolizin-7a(5H)-yl)methoxy)quinazolm-4-yl)-3,8-diazabicyclo[3.2.1]octan-3-yl)(1H-1,2,4-triazol-1-yl)methanone], in the assay on GP2D cells (GP2D cells (K-Ras G12D)), the IC50 was no more than 1 µM. In addition, on K-Ras G12S, the “Ratio” value is “A (A: indicates that the ratio of IC50 against KrasG12D vs. IC50 against KrasG12S is 1-fold or greater)”.
With `C[C@@H]1CN(C(=O)n2cncn2)[C@@H](C)CN1c1nc(OC[C@@]23CCCN2C[C@H](F)C3)nc2c(F)c(-c3ccc(F)c4sc(N)nc34)c(Cl)cc12` [Compound A244, ((2S,5R)-4-(7-(2-amino-7-fluorobenzo[d]thiazol-4-yl)-6-chloro-8-fluoro-2-(((2R,7aS)-2-fluorotetrahydro-1H-pyrrolizin-7a(5H)-yl)methoxy)quinazolin-4-yl)-2,5-dimethylpiperazin-1-yl)(1H-1,2,4-triazol-1-yl)methanone], the IC50 with GP2D cells (GP2D cells (K-Ras G12D)) lay within 1 to 10 µM. In addition, on K-Ras G12S, the “Ratio” value is “A (A: indicates that the ratio of IC50 against KrasG12D vs. IC50 against KrasG12S is 1-fold or greater)”.
Take `N#Cc1cnn(C(=O)N2CC3COCC(C2)N3c2nc(OC[C@@]34CCCN3C[C@H](F)C4)nc3c(F)c(-c4ccc(F)c5sc(N)c(C#N)c45)c(Cl)cc23)c1` [Compound A249, 1-(9-(7-(2-amino-3-cyano-7-fluorobenzo[b]thiophen-4-yl)-6-chloro-8-fluoro-2-(((2R,7aS)-2-fluorotetrahydro-1H-pyrrolizin-7a(5H)-yl)methoxy)quinazolin-4-yl)-3-oxa-7,9-diazabicyclo[3.3.1]nonane-7-carbonyl)-1H-pyrazole-4-carbonitrile]: the IC50 with GP2D cells (GP2D cells (K-Ras G12D)) was no more than 1 µM. For the same compound, the “Ratio” value on K-Ras G12S is given as “A (A: indicates that the ratio of IC50 against KrasG12D vs. IC50 against KrasG12S is 1-fold or greater)”.
Take `Nc1nc2c(-c3c(Cl)cc4c(N5CCC6(CCN(C(=O)n7cncn7)CC6)CC5)nc(OC[C@@]56CCCN5C[C@H](F)C6)nc4c3F)ccc(F)c2s1` [Compound A250, (9-(7-(2-amino-7-fluorobenzo[d]thiazol-4-yl)-6-chloro-8-fluoro-2-(((2R,7aS)-2-fluorotetrahydro-1H-pyrrolizin-7a(5H)-yl)methoxy)quinazolin-4-yl)-3,9-diazaspiro[5.5]undecan-3-yl)(1H-1,2,4-triazol-1-yl)methanone]: the half-maximal inhibitory concentration (IC50) with GP2D cells (GP2D cells (K-Ras G12D)) was in the range of 1 to 10 µM. Further, the “Ratio” value on K-Ras G12S is recorded as “A (A: indicates that the ratio of IC50 against KrasG12D vs. IC50 against KrasG12S is 1-fold or greater)”.
As for `Nc1nc2c(-c3c(Cl)cc4c(N5CC6(CN(C(=O)n7cncn7)C6)C5)nc(OC[C@@]56CCCN5C[C@H](F)C6)nc4c3F)ccc(F)c2s1` [Compound A264, (6-(7-(2-amino-7-fluorobenzo[d]thiazol-4-yl)-6-chloro-8-fluoro-2-(((2R,7aS)-2-fluorotetrahydro-1H-pyrrolizin-7a(5H)-yl)methoxy)quinazolm-4-yl)-2,6-diazaspiro[3.3]heptan-2-yl)(1H-1,2,4-triazol-1-yl)methanone], the IC50 in the assay with GP2D cells (GP2D cells (K-Ras G12D)) fell in the range of 1 to 10 µM. In addition, on K-Ras G12S, the “Ratio” value is “A (A: indicates that the ratio of IC50 against KrasG12D vs. IC50 against KrasG12S is 1-fold or greater)”.
Turning to `Nc1nc2c(-c3c(Cl)cc4c(N5C6COCC5CN(C(=O)n5cncn5)C6)nc(OC[C@@]56CCCN5C[C@H](F)C6)nc4c3F)ccc(F)c2s1` [Compound A270, (9-(7-(2-amino-7-fluorobenzo[d]thiazol-4-yl)-6-chloro-8-fluoro-2-(((2R,7aS)-2-fluorotetrahydro-1H-pyrrolizin-7a(5H)-yl)methoxy)quinazolin-4-yl)-3-oxa-7,9-diazabicyclo[3.3.1]nonan-7-yl)(1H-1,2,4-triazol-1-yl)methanone], in the assay with GP2D cells (GP2d), the IC50 is no more than 1 µM. Also, the “Ratio” value on K-Ras G12S is “A (A: indicates that the ratio of IC50 against KrasG12D vs. IC50 against KrasG12S is 1-fold or greater)”.

For the origin of these results see patent publication EP4389751A1, “HETEROCYCLIC COMPOUNDS AND USES THEREOF” (Kumquat Biosciences Inc., priority 2021, dated 2024).
